Measurements as given in US9802897B2, “Amidopyridinol derivative or pharmaceutically acceptable salt thereof and pharmaceutical composition comprising same as active component” (Research Cooperation Foundation of Yeungnam University, priority 2013, dated 2017).
“And” between values parts separate entries of the source, which are not always exact repeats. Equal values may be shown once.

Assays:
[1] = tested on: HUVEC cells; assay: Scavenging of VEGF-induced ROS in HUVEC cells (DCF-DA fluorescence); assay type: cell-based; settings: pre-treated 3 hours, induced by VEGF 15 minutes, vs VEGF-induced cells
Protocol: (§1) To measure scavenging effects of ROS in HUVEC cells that were induced by VEGF, 2′,7′-dichlorofluorescein diacetate (DCF-DA) was used. […] After […] at a concentration of 1×10^5, each of which well was coated with 0.2% gelatin, DCF-DA was cultured for 24 hours. Meanwhile, Compounds 8a and 8b were pre-treated for 3 hours, induced by VEGF for 15 minutes, and then, washed with PBS (pH 7.4) three times. Then, 10 μM of DCF-DA was placed in a EBM-2 medium to be treated for 30 minutes in a dark room. Then, DCF-DA was washed again with PBS three times, and then, subjected to measure intensity of fluorescence in the cells by using a fluorescence microscope.

[2] = tested on: ARPE-19 cell line; assay: Scavenging of ROS induced by risk factors of macular degeneration (4-HNE, Ang II) in ARPE-19 cells; assay type: cell-based; settings: vs control group
Protocol: as §1
According to a similar manner as in Experimental Example 2, a risk factor of macular degeneration, e.g., 4-hydroxynonenal (4-HNE) or angiotensin II (Ang II), were treated with an adult retinal pigment epithelium-19 (ARPE-19) cell line, so as to observe scavenging effects of ROS in Compounds 8a and 8b.

[3] = tested on: HT-29 cells / U937 cells; assay: TNF-α-induced adhesion of HT-29 intestinal epithelial cells and U937 mononuclear cells; assay type: cell-based, human; settings: Homo sapiens; 1 μM, pre-treated 1 hour; TNF-α 10 ng/ml; read-out: Inhibitory rates (%)
Procedure, shortened: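 HT-29 cells were pretreated with compound for 1 h in serum-free medium, then stimulated with TNF-α 10 ng/ml for 3 h at 37 °C. BCECF-AM-labelled U937 cells were co-incubated for 1 h at 37 °C. Non-adherent cells were washed off, and lysates in 0.1% Triton X-100/0.1 M Tris were read by fluorescence.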

[4] = tested on: VEGF-induced angiogenesis in chicken chorioallantoic membrane (CAM); assay: CAM analysis of VEGF-induced angiogenesis; assay type: in vivo; settings: for inhibition in vivo at 0.01 nmol/CAM: Gallus gallus, 72 h, VEGF (20 ng/CAM) + Compound (0.01 nmol/CAM), number of blood vessels after 3 days, read-out: Inhibitory rates (%); for ID50 against inhibition of angiogenesis: VEGF-induced CAM angiogenesis
Procedure, shortened: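 Fertilized chicken eggs incubated at 37° C, 55% humidity; on day 10 a window was opened and a cortisone acetate (3 mg/mL)-treated filter disk carrying VEGF at 20 ng/CAM was placed on vessels. Compounds in DMSO/PBS were applied at several concentrations for 3 days; blood vessel number under the disk was counted by stereomicroscopy.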

[5] = tested on: A549 lung cancer cells; assay: CAM inoculated with A549 lung cancer cells: angiogenesis and tumor growth; assay type: in vivo, chicken; settings: for Inhibition rates of angiogenesis (%) / Inhibition rates of tumor growth (%): A549 on CAM, 5 days; for inhibitory effects on angiogenesis and tumor growth (in words): at each density
Protocol: To confirm inhibitory effects on angiogenesis through in vivo experiments, the CAM analysis was carried out (refer to Nguyen M et al., Microvascular Res., 47, pp 31-40, 1994). A fertilized egg of a chicken was cultured in conditions maintaining a temperature of 37° C. and relative humidity of 55%. On the 9th day of the culturing, a first small hole was made on an air sac part using a hypodermic needle (Green Cross Medical Corp., Korea), and then, a second hole was made on a flat part of the fertilized egg to make a window thereon. Air was removed through the first hole, i.e., the air sac part, and accordingly, the CAM was separated from the shell of the fertilized egg. Then, a grinding wheel (Multipro 395JA, Dremel, Mexico) was used to cut the air sac part, thereby making a window thereon. Meanwhile, A549 lung cancer cells were mixed with matrigel at a ratio of 1:1, and then, the mixture was treated with Compounds 8a, 8b, and 8g, respectively, followed by being inoculated at a density of 1.5×10^6 cells/CAM.
After 5 days of the inoculation, the CAM part on which tumors were formed was isolated, and then, washed with PBS. The Stemi SV6 stereomicroscope (Carl Zeiss, Germany) and the Image-Pro Plus software (Media Cybernetics; Silver Spring, Md., USA) were used to capture images of the CAM part, so as to measure the number of the blood vessels and to analyze data obtained therefrom.

[6] = ARPE-19 treated with 4-hydroxynonenal (4-HNE)
[7] = ARPE-19 treated with angiotensin II (Ang II)

SMILES	intensity of fluorescence in the cells (ROS) [1]	intensity of fluorescence (ROS) [2, 6]	intensity of fluorescence (ROS) [2, 7]	inhibition at 1 µM [3] [%]	inhibition in vivo at 0.01 nmol/CAM [4] [%]	ID50 against inhibition of angiogenesis [4]	Inhibition rates of angiogenesis (%) ([5]; 0.001 pmol/CAM)	Inhibition rates of tumor growth (%) ([5]; 0.001 pmol/CAM)	Inhibition rates of angiogenesis (%) ([5]; 0.01 pmol/CAM)	Inhibition rates of tumor growth (%) ([5]; 0.01 pmol/CAM)	Inhibition rates of angiogenesis (%) ([5]; 0.1 pmol/CAM)	Inhibition rates of tumor growth (%) ([5]; 0.1 pmol/CAM)	Inhibition rates of angiogenesis (%) ([5]; 1.0 pmol/CAM)	Inhibition rates of tumor growth (%) ([5]; 1.0 pmol/CAM)	inhibitory effects on angiogenesis and tumor growth (in words) [5]
CC(=O)Nc1nc(C)c(O)c(C)c1C [Compound 8a, N-(5-hydroxy-3,4,6-trimethylpyridine-2-yl)acetamide]	significant decrease in the intensity of fluorescence	significant decrease in the intensity of fluorescence	significant decrease in the intensity of fluorescence	55.4	84.8 ± 10	1.7 pg/CAM and 8.7 fmol/CAM	12.7 ± 6.5	20.3 ± 5.9	23.8 ± 5.2	34.2 ± 5.3	30.4 ± 3.7	37.9 ± 8.0	41.2 ± 1.4	47.7 ± 4.1	inhibited angiogenesis upon tumorigenesis, as well as tumor growth
CCCCCCCCCCCC(=O)Nc1nc(C)c(O)c(C)c1C [Compound 8b, N-(5-hydroxy-3,4,6-trimethylpyridine-2-yl)dodecanamide]	significant decrease in the intensity of fluorescence	significant decrease in the intensity of fluorescence	significant decrease in the intensity of fluorescence	55.8	59.3 ± 5.4	5.0 pg/CAM and 14.9 fmol/CAM	12.2 ± 4.4	21.7 ± 8.9	18.0 ± 3.2	26.0 ± 10.0	21.3 ± 2.0	31.3 ± 7.3	24.7 ± 2.2	38.2 ± 7.2	inhibited angiogenesis upon tumorigenesis, as well as tumor growth
